Experimental data reported in patent US7078428B2, “Isoindolone derivatives, preparation process and intermediates of this process, their use as medicaments, and pharmaceutical compositions comprising them” (Sanofi-Aventis Deutschland GmbH, priority 2002, dated 2006).

biological target: T1, NHE1 (Homo sapiens, UniProt P19634); experiment: NHE inhibition FLIPR test (intracellular pH recovery, BCECF) in transfected LAP-1 cells; format: cell-based; details: transfected cell line (parental LAP-1) expressing the NHE-1 subtype, pHi recovery after acidification
T1 construct: expressed in transfected cells
T1 sequence (P19634 whole entry, species assumed): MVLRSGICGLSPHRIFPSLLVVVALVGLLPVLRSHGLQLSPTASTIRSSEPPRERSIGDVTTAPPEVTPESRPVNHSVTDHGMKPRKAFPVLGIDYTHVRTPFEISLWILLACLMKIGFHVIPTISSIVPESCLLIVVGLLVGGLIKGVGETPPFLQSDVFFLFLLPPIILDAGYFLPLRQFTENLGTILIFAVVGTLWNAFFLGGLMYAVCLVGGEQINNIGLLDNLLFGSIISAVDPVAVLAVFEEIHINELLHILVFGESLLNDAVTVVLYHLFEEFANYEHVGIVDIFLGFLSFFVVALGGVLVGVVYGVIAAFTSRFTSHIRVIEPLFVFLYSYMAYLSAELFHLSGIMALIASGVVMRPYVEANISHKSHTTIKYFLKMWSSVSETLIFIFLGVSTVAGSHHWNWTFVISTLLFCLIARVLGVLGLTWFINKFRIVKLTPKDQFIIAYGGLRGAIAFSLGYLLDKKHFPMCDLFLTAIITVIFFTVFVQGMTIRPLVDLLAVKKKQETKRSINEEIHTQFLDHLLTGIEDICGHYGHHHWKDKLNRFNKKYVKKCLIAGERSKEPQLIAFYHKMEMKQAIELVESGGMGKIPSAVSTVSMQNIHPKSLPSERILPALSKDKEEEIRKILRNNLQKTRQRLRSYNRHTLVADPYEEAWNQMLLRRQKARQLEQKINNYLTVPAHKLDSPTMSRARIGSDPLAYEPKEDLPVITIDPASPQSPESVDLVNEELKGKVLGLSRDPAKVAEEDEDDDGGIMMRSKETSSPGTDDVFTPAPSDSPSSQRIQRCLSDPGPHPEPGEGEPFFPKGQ
Experimental: The NHE inhibitory activities (IC50 values) of the compounds according to the invention were determined by a FLIPR test.
The test is performed in the FLIPR (Fluorescent Imaging Plate Reader) equipped with clear-bottomed and black-walled 96-well microtitration plates.
The growth medium for the transfected cells (Iscove +10% foetal calf serum) also comprises G418 as selection antibiotic to ensure the presence of transfected sequences.
The actual test begins by eliminating the growth medium and adding 100 μl of loading buffer per well (5 μM of BCECF-AM [2′,7′-bis(2-carboxyethyl)-5-(6)-carboxyfluoresceine acetoxymethyl ester] in 20 mM of NH4Cl, 115 mM of choline chloride, 1 mM of CaCl2, 5 mM of KCl, 20 mM of HEPES and 5 mM of glucose; pH 7.4 (adjusted with KOH). The cells are then incubated for 20 minutes at 37° C. This incubation results in the loading of the fluorescent dye into the cells, the fluorescence intensity of which depends on the pHi, and on the NH4Cl, which results in a slight basification of the cells.
The precursor BCECF-AM, a non-fluorescent dye, is, as an ester, capable of crossing the membrane. The actual dye, which is incapable of crossing the membrane, is released inside the cell by esterases.
After this 20-minute incubation, the loading buffer, which comprises NH4Cl and free BCECF-AM, is removed by washing three times in the cell washing device (Tecan Columbus), each wash being performed with 400 μl of washing buffer (133.8 mM of choline chloride, 4.7 mM of KCl, 1.25 mM of MgCl2, 1.25 mM of CaCl2, 0.97 mM of K2HPO4, 0.23 mM of KH2PO4, 5 mM of HEPES and 5 mM of glucose; pH 7.4 (adjusted with KOH)). The residual volume remaining in the wells is 90 μl (possibly between 50 and 125 μl). This washing step removes the free BCECF-AM and results in an intracellular acidification (pHi of 6.3-6.4) due to the removal of the external ammonium ions.
As the equilibrium of the intracellular ammonium with the aqueous ammonia and the protons, by removal of the extracellular ammonium and by the subsequent immediate crossing of the aqueous ammonia across the cell membrane, is disrupted, the washing process results in intracellular protons remaining, which is the cause of the intracellular acidification. This acidification can result finally in the death of the cells if it lasts long enough. It is important here for the washing buffer to be free of sodium (<1 mM), otherwise the extracellular sodium ions would result in an immediate increase in the pHi on account of the activity of the cloned NHE isoforms. It is also important for all the buffers used (loading buffer, washing buffer and regeneration buffer) not to contain any HCO3-ions, otherwise the presence of bicarbonate would result in the activation of bicarbonate-dependent systems that disrupt the pHi regulation, which systems are contained in the LAP-1 parental cell line.
The microtiter plates containing acidified cells are then transferred (up to 20 minutes after the acidification) to the FLIPR. In the FLIPR, the intracellular fluorescent dye is activated with light of a wavelength of 488 nm, which is generated by an argon laser, and the measuring parameters (laser power, illumination time and diaphragm of the […] camera integrated into the FLIPR) are chosen such that the average value of the fluorescent signal per well is between 30,000 and 35,000 relative fluorescence units.
The actual measurement in the FLIPR starts with a photograph being taken by the CCD camera every two seconds under software control. After 10 seconds, the increase in the intracellular pH is initiated by adding 90 μl of regeneration buffer (133.8 mM of NaCl, 4.7 mM of KCl, 1.25 mM of MgCl2, 1.25 mM of CaCl2, 0.97 mM of K2HPO4, 0.23 mM of KH2PO4, 10 mM of HEPES and 5 mM of glucose; pH 7.4 (adjusted with NaOH)) using a 96-well pipette device incorporated into the FLIPR. Some wells, to which is added pure regeneration buffer, serve as positive controls (100% NHE activity). […]

IC50	Compound
2 nM	NC(N)=NC(=O)CC1c2cc(Cl)ccc2C(=O)N1CC1CC1 (single isomer, unassigned) [Example 55a]
16 nM	NC(N)=NC(=O)CC1c2cc(Cl)ccc2C(=O)N1CCCC(F)(F)F (single isomer, unassigned) [Example 53b]
1 nM	NC(N)=NC(=O)CC1c2cc(Cl)ccc2C(=O)N1CCC(F)(F)F (single isomer, unassigned) [Example 49a]
48 nM	NC(N)=NC(=O)CC1c2ccc(Cl)cc2C(=O)N1CCCC(F)(F)F (single isomer, unassigned) [Example 54b]
28 nM	NC(N)=NC(=O)CC1c2ccc(Cl)cc2C(=O)N1CC1CC1 (single isomer, unassigned) [Example 56a]
83 nM	NC(N)=NC(=O)CC1c2cc(Cl)ccc2C(=O)N1CCCC(F)(F)F (single isomer, unassigned) [Example 53a]
9 nM	NC(N)=NC(=O)CC1c2ccc(Cl)cc2C(=O)N1CCC(F)(F)F (single isomer, unassigned) [Example 50a]
5790 nM	NC(N)=NC(=O)CC1c2ccc(C(F)(F)F)cc2C(=O)N1CC(F)(F)F (single isomer, unassigned) [Example 47b]
13 nM	NC(N)=NC(=O)CC1c2cc(Cl)ccc2C(=O)N1CCC(F)(F)F (single isomer, unassigned) [Example 49b]

The next lines start with the compound.

Compound	IC50
CC(C)CN1C(=O)c2ccc(C(C)(C)C)cc2C1CC(=O)N=C(N)N (stereo not drawn) [Example 10, N-[2-(6-tert-Butyl-2-isobutyl-3-oxo-2,3-dihydro-1H-isoindol-1-yl)acetyl]guanidine]	15 nM
CC(C)CN1C(=O)c2ccccc2C1CC(=O)N=C(N)N (single isomer, unassigned; (-)) [Example 3, (−)-N-[2-(2-Isobutyl-3-oxo-2,3-dihydro-1H-isoindol-1-yl)acetyl]guanidine]	50 nM
CC(C)CN1C(=O)c2ccccc2C1CC(=O)N=C(N)N (stereo not drawn) [Example 2, N-[2-(2-Isobutyl-3-oxo-2,3-dihydro-1H-isoindol-1-yl)acetyl]guanidine]	59 nM
N-[2-(3-Oxo-2-(4,4,4-trifluorobutyl)-5-trifluoromethyl-2,3-dihydro-1H-isoindol-1-yl)-acetyl]guanidine and N-[2-(3-Oxo-2-(4,4,4-trifluorobutyl)-6-trifluoromethyl-2,3-dihydro-1H-isoindol-1-yl)acetyl]guanidine [Example 29]	2340 nM
CN1C(=O)c2ccccc2C1CC(=O)N=C(N)N (stereo not drawn) [Example 1, N-[2-(2-Methyl-3-oxo-2,3-dihydro-1H-isoindol-1-yl)acetyl]guanidine]	74 nM
CC(C)CN1C(=O)c2ccccc2C1CC(=O)N=C(N)N (single isomer, unassigned; (+)) [Example 4, (+)-N-[2-(2-Isobutyl-3-oxo-2,3-dihydro-1H-isoindol-1-yl)acetyl]guanidine]	57 nM
Cc1ccc2c(c1)C(CC(=O)NC(=N)N)N(CC(C)C)C2=O (stereo not drawn) [Example 35, N-[(2-Isobutyl-6-methyl-3-oxo-2,3-dihydro-1H-isoindol-1-yl)acetyl]guanidine]	38 nM
[H]/N=C(\N)NC(=O)CC1c2cc(Cl)c(Cl)cc2C(=O)N1CC1CC1 (single isomer, unassigned) [Example 42a]	66 nM
[H]/N=C(\N)NC(=O)CC1c2cc(Cl)c(Cl)cc2C(=O)N1CCC(F)(F)F (stereo not drawn) [Example 41a, N-{2-[5,6-Dichloro-3-oxo-2-(3,3,3-trifluoro-propyl)-2,3-dihydro-1H-isoindol-1-yl]-acetyl}-guanidine acetate]	3 nM
NC(N)=NC(=O)CC1c2cc(C(F)(F)F)ccc2C(=O)N1CC1CC1 (single isomer, unassigned) [Example 38a]	249 nM
NC(N)=NC(=O)CC1c2cc(C(F)(F)F)ccc2C(=O)N1CC(F)(F)F (single isomer, unassigned) [Example 46a]	19 nM
NC(N)=NC(=O)CC1c2cc(Cl)c(Cl)cc2C(=O)N1CC(F)(F)F (single isomer, unassigned) [Example 44c]	260 nM
N-[2-(3-Oxo-5-trifluoromethyl-2-(3,3,3-trifluoropropyl)-2,3-dihydro-1H-isoindol-1-yl)-acetyl]guanidine and N-[2-(3-oxo-6-trifluoromethyl-2-(3,3,3-trifluoropropyl)-2,3-dihydro-1H-isoindol-1-yl)acetyl]guanidine [Example 27]	22 nM
NC(N)=NC(=O)CC1c2cc(F)c(F)cc2C(=O)N1CC(F)(F)F (stereo not drawn) [Example 45, N-{2-[5,6-Difluoro-3-oxo-2-(2,2,2-trifluoro-ethyl)-2,3-dihydro-1H-isoindol-1-yl]-acetyl}-guanidine]	212 nM
N=C(N)NC(=O)CC1c2cc(F)c(F)cc2C(=O)N1CCC(F)(F)F (racemic) [Example 40, (R)-N-{2-[5,6-Difluoro-3-oxo-2-(3,3,3-trifluoro-propyl)-2,3-dihydro-1H-isoindol-1-yl]-acetyl}-guanidine and (S)-N-{2-[5,6-Difluoro-3-oxo-2-(3,3,3-trifluoro-propyl)-2,3-dihydro-1H-isoindol-1-yl]-acetyl}-guanidine]	29 nM
NC(N)=NC(=O)CC1c2cc(Cl)c(Cl)cc2C(=O)N1CC(F)(F)F (single isomer, unassigned) [Example 44b]	13 nM
N=C(N)NC(=O)CC1c2cc(F)c(F)cc2C(=O)N1CCC(F)(F)F (single isomer, unassigned) [Example 40b]	63 nM
NC(N)=NC(=O)CC1c2cc(Cl)c(Cl)cc2C(=O)N1C1CC1 (single isomer, unassigned) [Example 43b]	442 nM
[H]/N=C(\N)NC(=O)CC1c2cc(S(C)(=O)=O)ccc2C(=O)N1CC(F)(F)F (single isomer, unassigned) [Example 36a]	524 nM
NC(N)=NC(=O)CC1c2cc(C(F)(F)F)ccc2C(=O)N1CC(F)(F)F (single isomer, unassigned) [Example 46b]	0.2 nM
[H]/N=C(\N)NC(=O)CC1c2cc(S(C)(=O)=O)ccc2C(=O)N1CC(F)(F)F (single isomer, unassigned) [Example 36b]	6 nM
[H]/N=C(\N)NC(=O)CC1c2cc(Cl)c(Cl)cc2C(=O)N1CC1CC1 (racemic) [Example 42, (R)-N-[2-(5,6-Dichloro-2-cyclopropylmethyl-3-oxo-2,3-dihydro-1H-isoindol-1-yl)-acetyl]-guanidine and (S)-N-[2-(5,6-Dichloro-2-cyclopropylmethyl-3-oxo-2,3-dihydro-1H-isoindol-1-yl)-acetyl]-guanidine]	18 nM
Cc1cccc2c1C(=O)N(CC(C)C)C2CC(=O)N=C(N)N (stereo not drawn) [Example 20, N-[2-(2-Isobutyl-4-methyl-3-oxo-2,3-dihydro-1H-isoindol-1-yl)-acetyl]-guanidine]	18 nM
CC(C)CN1C(=O)c2cc(OC(C)C)ccc2C1CC(=O)N=C(N)N (stereo not drawn) [Example 16, N-[2-(2-Isobutyl-5-isopropoxy-3-oxo-2,3-dihydro-1H-isoindol-1-yl)-acetyl]-guanidine]	251 nM
N-[2-(5-Chloro-2-isobutyl-3-oxo-2,3-dihydro-1H-isoindol-1-yl)acetyl]guanidine and N-[(6-Chloro-2-isobutyl-3-oxo-2,3-dihydro-1H-isoindol-1-yl)acetyl]guanidine [Example 12]	7 nM

test system: not given; experiment: not given; details: not given

melting point	Compound
214 to 215 °C	CC(C)CN1C(=O)c2ccc(C(C)(C)C)cc2C1CC(=O)N=C(N)N (stereo not drawn) [Example 10, N-[2-(6-tert-Butyl-2-isobutyl-3-oxo-2,3-dihydro-1H-isoindol-1-yl)acetyl]guanidine]
264 °C	CC(C)CN1C(=O)c2ccccc2C1CC(=O)N=C(N)N (single isomer, unassigned; (-)) [Example 3, (−)-N-[2-(2-Isobutyl-3-oxo-2,3-dihydro-1H-isoindol-1-yl)acetyl]guanidine]
